# Values joined by “and” are separate entries in the source; they are usually repeats but may differ in a detail not shown here. Identical values can stand only once. Like-named read-outs stand apart in the source and are kept apart here. Positions of bridges follow the written chain, without caps; N, C: chain ends. Residues, ends and D or L forms follow the SMILES beside them.
# What was measured:
# A. veronii ACCC61732 [1] = assay: Outer membrane permeabilization, NPN assay; type: cell-based; settings: NPN fluorescence, 1×–4× MIC
# Protocol: The outer membrane permeabilization abilities of peptides were determined using the fluorescent NPN assay. Mid-log phase A. veronii ACCC61732 was collected by centrifugation, washed twice, and then suspended in N-2-hydroxyethylpiperazine-n-2-ethane sulfonic acid (HEPES) buffer (pH 7.4) to an OD600nm = 0.4. […] Fluorescence intensity was recorded until no further increase with a microplate reader (excitation/emission, 328/438 nm).
# [2] = tested on: A. veronii ACCC61732 mature biofilms; assay: Eradication of mature biofilms, crystal violet; type: cell-based; settings: 16× MIC, 24 h on 24 h biofilm
# Protocol: A. veronii ACCC61732 cells (1 × 10^8 CFU/mL) were cultured in TSB medium in the 96-well plates at 37 °C for 24 h.
# in vitro = settings: mouse, 25% mouse serum
# [3] = tested on: Salmonella typhimurium ATCC14028; type: cell-based
# A. veronii ACCC61732 [4] = assay: ATP release, BacTiter-Glo; type: cell-based; settings: 8×, 16× and 32× MIC, 60 min, 37 °C, luminescence, n = 3
# Protocol: The assay was performed for three biological replicates at 37 °C, with luminescence recorded using a Tecan Infinite M1000 Pro plate reader. The fold reduction of ATP was calculated as: Fold reduction ATP = 1 − (Ltreat − Lmedia/Lcontrol − Lmedia), where Ltreat is the luminescence of treated cells, Lmedia is the luminescence of MHB without cells, and Lcontrol is the luminescence of untreated cells. Resultant graphs show mean (n = 3) and SEM for each data point, prepared in Prism 7 [46].
# [5] = tested on: A. veronii ACCC61732 biofilms; assay: Mouse model of catheter-associated biofilm infection, bacteria in catheter; type: in vivo, ICR mice; settings: 5 μmol/kg peptide or CIP 24 h after catheter implantation, catheters collected after seven days, six mice per group
# Protocol: Briefly, the catheter was cut into 1 cm segments; each piece was sterilized with 70% ethanol and then dried by air. Bacterial biofilms were developed on the catheter by placing individual segments into tubes containing 1.0 mL of a cell suspension (1 × 10^8 CFU/mL) in TSB. After incubation for 24 h at 37 °C, colonized catheters were recovered aseptically and rinsed with PBS to remove unbound bacteria. ICR female mice (20 ± 5 g) were anesthetized with isoflurane; the flanks were shaved and the skin was cleansed with alcohol. […] The incision was then covered with intact skin and closed with surgical suture line and the skin was disinfected. […] The untreated mice were used as the negative control and the mice with sterile catheter were used as the blank control. The mice were anesthetized and sacrificed after seven days. The catheters in the back of the mice were collected and thoroughly shaken in sterile PBS.
# S. hyicus NCTC10350 = tested on: S. hyicus NCTC10350
# Protocol: (§1) Briefly, the tested strains including Gram-negative bacteria, Gram-positive bacteria, and fungi were cultured to the logarithmic growth phase, diluted to 10^5 CFU/mL, and added into 96-well plates (90 μL/well). Two-fold serial dilutions of peptides or antibiotics dissolved in PBS were added to each well (10 μL/well). […] All experiments were repeated three times.
# [6] = tested on: Aeromonas veronii ACCC61732
# Protocol: as §1
# [7] = tested on: Pseudomonas aeruginosa CICC21630
# Protocol: as §1
# S. aureus ATCC25923 = tested on: S. aureus ATCC25923
# Protocol: as §1
# A. veronii CL0901 = tested on: A. veronii CL0901
# Protocol: as §1
# S. aureus ATCC546 = tested on: S. aureus ATCC546
# Protocol: as §1
# TNF-α = assay: Serum cytokine, ELISA, peritonitis model; type: in vivo; settings: 5 μmol/kg, 24 h after treatment, range over mice
# Protocol: (§2) Sera and organs (livers, kidneys, spleens, and lungs) were collected from the mice at 24 h post-treatment. The organs were homogenized in sterile PBS to evaluate bacterial translocation by colony counting. The levels of cytokines (TNF-α, IL-1β, IL-6, and IL-10) in sera were detected using the ELISA kits.
# IL-1β = assay: Serum cytokine, ELISA, peritonitis model; type: in vivo; settings: 5 μmol/kg, 24 h after treatment, range over mice
# Protocol: as §2
# IL-6 = assay: Serum cytokine, ELISA, peritonitis model; type: in vivo; settings: 5 μmol/kg, 24 h after treatment, range over mice
# Protocol: as §2
# IL-10 = assay: Serum cytokine, ELISA, peritonitis model; type: in vivo; settings: 5 μmol/kg, 24 h after treatment, range over mice
# Protocol: as §2
# A. veronii ACCC61732 [8] = assay: Inner membrane permeability, PI staining, flow cytometry; type: cell-based
# Protocol: To analyze effects of peptides on the inner membrane, A. veronii ACCC61732 cells were cultured to mid-log phase at 37 °C in MHB medium, washed thrice with PBS, and resuspended in the PBS buffer to 1 × 10^8 CFU/mL. […] After fixation with PI, the samples were detected by a fluorescent inverted microscope and FACS Calibur Flow Cytometer (BD, San Jose, CA, USA), respectively. Cell Quest Pro software (BD, San Jose, CA, USA) was used for the data analysis.
# Escherichia coli = assay: MIC, range over strains; type: cell-based; settings: range over the strains of Table 2
# Text: (§3) All experiments were repeated three times.
# A. veronii = assay: MIC, range over strains; type: cell-based; settings: range over the strains of Table 2
# Text: as §3
# MDR A. veronii ACCC61732 = assay: Mouse peritonitis model, survival; type: in vivo, ICR mice; settings: 5 μmol/kg i.p. 0.5 h after infection, seven days, six mice
# Protocol: […]. The mice injected with only bacteria or saline served as the negative and blank control. The mouse survival was recorded daily for seven days.
# [9] = Salmonella typhimurium ATCC14028, broth dilution, 37 °C, 16–18 h, three experiments
# [10] = S. hyicus NCTC10350, broth dilution, 37 °C, 16–18 h, three experiments
# [11] = Aeromonas veronii ACCC61732 (MDR), broth dilution, 37 °C, 16–18 h, three experiments
# [12] = Pseudomonas aeruginosa CICC21630, broth dilution, 37 °C, 16–18 h, three experiments
# [13] = S. aureus ATCC25923, broth dilution, 37 °C, 16–18 h, three experiments
# [14] = A. veronii CL0901, broth dilution, 37 °C, 16–18 h, three experiments
# [15] = S. aureus ATCC546, broth dilution, 37 °C, 16–18 h, three experiments
SMILES,remaining at 2 h (in vitro) [%],remaining at 4.5 h (in vitro) [%],"MIC [3, 9] [µg/mL]",decrease of bacterial cells in the catheter [5] [%],MIC (S. hyicus NCTC10350; NCTC10350) [µM],MIC (S. hyicus NCTC10350; [10]) [µg/mL],"MIC [6, 11]",MIC ([7]; CICC21630) [µM],"MIC [7, 12] [µg/mL]",MIC (S. aureus ATCC25923; ATCC25923) [µM],MIC (S. aureus ATCC25923; [13]) [µg/mL],MIC (A. veronii CL0901) [µM],MIC (A. veronii CL0901; [14]) [µg/mL],MIC (S. aureus ATCC546; ATCC546) [µM],MIC (S. aureus ATCC546; [15]) [µg/mL],serum level of TNF-α (TNF-α) [pg/mL],serum level of IL-1β (IL-1β) [pg/mL],serum level of IL-6 (IL-6) [pg/mL],serum level of IL-10 (IL-10) [pg/mL],"Permeability (PI-positive cells) (A. veronii ACCC61732 [8]; 1× MIC, 0.5 h) [%]",other results
CC(C)[C@H]1NC(=O)CNC(=O)[C@@H](CC(N)=O)NC(=O)[C@@H](CCCNC(=N)N)NC(=O)[C@@H](Cc2ccc(O)cc2)NC(=O)[C@@H](C(C)C)NC(=O)[C@H](NC(=O)[C@H](NC(=O)[C@@H](CC(N)=O)NC(=O)[C@@H](Cc2c[nH]c3ccccc23)NC(=O)[C@@H](C)NC(=O)[C@@H](Cc2ccccc2)NC(=O)CN)C(C)C)CSSC[C@H](C(=O)N[C@H](Cc2c[nH]cn2)C(=O)N[C@H](CCCNC(=N)N)C(=O)N[C@H](CCCNC(=N)N)C(=O)N[C@H](C)C(=O)N[C@H](CC(N)=O)C(N)=O)NC(=O)[C@@H](C(C)C)NC(=O)[C@@H](CCCNC(=N)N)NC1=O [DN6NH2],92.7,78.4,8,71.55,3.23,8,4 μg/mL and 1.62 μM,3.23,8,3.23,8,12.93,32,6.46,16,40.02 to 66.20,8.17 to 25.94,104.48 to 115.43,15.94 to 25.46,0,"ability to penetrate the outer membrane (A. veronii ACCC61732 [1]): higher ability to penetrate the outer membrane than N6NH2; inhibition of mature biofilms [2]: 91.90%; MIC ([3]; ATCC14028): 3.23 µM; ATP release (A. veronii ACCC61732 [4]): 84.34–86.15%; Permeability (PI-positive cells) (A. veronii ACCC61732 [8]; 1× MIC, 2 h): 3.42%; Permeability (PI-positive cells) (A. veronii ACCC61732 [8]; 2× MIC, 0.5 h): 9.16%; Permeability (PI-positive cells) (A. veronii ACCC61732 [8]; 2× MIC, 2 h): 9.83%; Permeability (PI-positive cells) (A. veronii ACCC61732 [8]; 4× MIC, 0.5 h): 41.93%; Permeability (PI-positive cells) (A. veronii ACCC61732 [8]; 4× MIC, 2 h): 33.73%; MIC values against Escherichia coli (Escherichia coli): 1.62 to 3.23 µM; MIC values against A. veronii (A. veronii): 1.62 to 25.86 µM"
CC(C)[C@H](N)C(=O)N[C@@H](Cc1ccccc1)C(=O)N[C@@H](C)C(=O)N[C@@H](Cc1c[nH]c2ccccc12)C(=O)N[C@@H](CC(N)=O)C(=O)N[C@H](C(=O)N[C@H]1CSSC[C@@H](C(=O)N[C@@H](Cc2c[nH]cn2)C(=O)N[C@@H](CCCNC(=N)N)C(=O)N[C@@H](CCCNC(=N)N)C(=O)N[C@@H](C)C(=O)N[C@@H](CC(N)=O)C(N)=O)NC(=O)[C@H](C(C)C)NC(=O)[C@H](CCCNC(=N)N)NC(=O)[C@H](C(C)C)NC(=O)[C@H](C(C)C)NC(=O)[C@H](CC(N)=O)NC(=O)[C@H](CCCNC(=N)N)NC(=O)[C@H](Cc2ccc(O)cc2)NC(=O)[C@H](C(C)C)NC1=O)C(C)C [V112N6NH2] (H-VFAWNVCVYRNVVRVCHRRAN-NH2; disulfide 7-16 (inferred)),81.4,32.1,16,55.29,25.01,64,16 µg/mL,12.5,32,12.5,32,12.51,32,6.25,16,52.05 to 59.01,16.41 to 24.86,133.08 to 150.00,16.48 to 19.60,0,"ability to penetrate the outer membrane (A. veronii ACCC61732 [1]): best ability to penetrate the outer membrane; remaining at 6 h (in vitro): 19.1%; MIC ([3]; ATCC14028): 6.25 µM; survival rate of mice (MDR A. veronii ACCC61732): 66.67%; MIC [6]: 6.25 µM; Permeability (PI-positive cells) (A. veronii ACCC61732 [8]; 1× MIC, 2 h): 1.8%; Permeability (PI-positive cells) (A. veronii ACCC61732 [8]; 2× MIC, 0.5 h): 0%; Permeability (PI-positive cells) (A. veronii ACCC61732 [8]; 2× MIC, 2 h): 5.67%; Permeability (PI-positive cells) (A. veronii ACCC61732 [8]; 4× MIC, 0.5 h): 4.28%; Permeability (PI-positive cells) (A. veronii ACCC61732 [8]; 4× MIC, 2 h): 23.93%; MIC values against Escherichia coli (Escherichia coli): 1.56 to 3.13 µM; MIC values against A. veronii (A. veronii): 6.25 to 12.51 µM"
CC(C)[C@@H]1NC(=O)CNC(=O)[C@H](CC(N)=O)NC(=O)[C@H](CCCNC(=N)N)NC(=O)[C@H](Cc2ccc(O)cc2)NC(=O)[C@H](C(C)C)NC(=O)[C@@H](NC(=O)[C@@H](NC(=O)[C@H](CC(N)=O)NC(=O)[C@H](Cc2c[nH]c3ccccc23)NC(=O)[C@H](C)NC(=O)[C@H](Cc2ccccc2)NC(=O)CN)C(C)C)CSSC[C@@H](C(=O)N[C@@H](Cc2cnc[nH]2)C(=O)N[C@@H](CCCNC(=N)N)C(=O)N[C@@H](CCCNC(=N)N)C(=O)N[C@@H](C)C(=O)N[C@@H](CC(N)=O)C(N)=O)NC(=O)[C@H](C(C)C)NC(=O)[C@H](CCCNC(=N)N)NC1=O [N6NH2],85.9,58,4,41.48,12.9,32,4 µg/mL,25.8,64,12.9,32,6.46,16,6.46,16,40.65 to 55.67,6.06 to 10.82,47.22 to 108.59,17.02 to 20.87,0,"remaining at 6 h (in vitro): 41.9%; ATP release (A. veronii ACCC61732 [4]): 56.07–90.00%; Permeability (PI-positive cells) (A. veronii ACCC61732 [8]; 1× MIC, 2 h): 1.39%; Permeability (PI-positive cells) (A. veronii ACCC61732 [8]; 2× MIC, 0.5 h): 0%; Permeability (PI-positive cells) (A. veronii ACCC61732 [8]; 2× MIC, 2 h): 1.49%"
